According to patent US7884117B2, “Carbonylamino pyrrolopyrazoles, potent kinase inhibitors” (Pfizer Inc., priority 2005, dated 2011):
pEC50, pKi: −log10 of the molar value.

Columns and labels:
[1] = molecular target: T1, PAK4 kinase activity in whole cells (TR-293-KDG, modified HEK 293) (Homo sapiens, UniProt O96013); assay: PAK4 cellular assay: sandwich ELISA of PAK4-dependent phosphorylation of GEF-H1b in TR-293-KDG cells; format: cell-based; conditions: 3-hour exposure
T1 construct: engineered to overexpress both GEF-H1b and the kinase domain (KD) of PAK4; expressed in transfected cells; host or cells: TR-293-KDG (modified HEK 293, Trex system, Invitrogen)
Procedure: A sandwich ELISA method was used to measure the PAK4 kinase activity in whole cells. The level of PAK4-dependent phosphorylation of GEF-H1b can be determined by monitoring the binding of a phosphospecific antibody to GEF-H1b. […] The KD of PAK4 is inducible in this cell line by tetracycline (Trex system, Invitrogen). […] To establish a phosphorylation event on GEF-HL, cells are induced with doxycycline to express the PAK4 KD. […] Candidate substance effect is measured as the ability to block this phosphorylation event.
ELISA plate was prepared by pre-coating the plates with a capture antibody (α-HA-tag mouse monoclonal antibody), blocked with BSA, and washed in 0.1% tween 20 in tris-buffered saline (TBST). […] Cells were then lysed with a modified RIPA buffer supplemented with protease inhibitors. […] Between all subsequent steps plates were washed 4 times with TBST. Detection antibody (recognizing the phospho-specific eptitope on GEF-H1b) was added for 1 hour, followed by addition of an enzyme linked goat α-rabbit secondary antibody for 45 minutes. […] EC50 values were calculated by sigmoid curve fitting using a four-parameter analysis.

[2] = molecular target: T2, PAK4 Kinase domain (PAK4 KD) (Homo sapiens, UniProt O96013); assay: PAK4 kinase domain enzymatic assay (PK/LDH-coupled, Ki); format: biochemical; conditions: for pKi: PAK4 Kinase Domain
T2 construct: Cloning, expression, and purification of recombinant PAK4 Kinase domain (PAK4 KD); His tag (pET28a(+)/pET24a(+), Ni-NTA purification) (N, cleaved yes); GST (pGST4.5, glutathione column) (N, cleaved yes); made in house; host or cells: E. coli BL21(DE3)
T2 sequence (O96013 321-572 limits assumed): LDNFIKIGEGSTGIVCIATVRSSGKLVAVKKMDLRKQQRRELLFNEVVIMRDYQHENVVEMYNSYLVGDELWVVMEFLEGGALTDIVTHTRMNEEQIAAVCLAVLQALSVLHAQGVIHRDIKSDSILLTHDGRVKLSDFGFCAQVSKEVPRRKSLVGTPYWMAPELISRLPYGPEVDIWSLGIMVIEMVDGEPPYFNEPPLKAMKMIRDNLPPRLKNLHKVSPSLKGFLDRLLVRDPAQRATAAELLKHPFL

T1 sequence (O96013 321-572 limits assumed): as above

| Compound | pEC50 [1] | pKi [2] | inhibition at 1 µM [2] [%] |
| --- | --- | --- | --- |
| 3-[(2,4-difluorobenzoyl)amino]-N-[(1S)-2-(dimethylamino)-1-phenylethyl]-6,6-dimethyl-4,6-dihydropyrrolo[3,4-c]pyrazole-5(1H)-carbox- amide [Example 49] | 7.04 | 6.71 | – |
| CN(C)C[C@@H](OC(=O)N1Cc2c(NC(=O)c3ccccc3F)n[nH]c2C1(C)C)c1ccccc1 [Example 3, (1S)-2-(dimethylamino)-1-phenylethyl 3-[(2-fluorobenzoyl)amino]-6,6-dimethyl-4,6-dihydropyrrolo[3,4-c]pyrazole-5(1H)-carboxylate] | 7.30 | 7.38 | – |
| CN(C)C[C@@H](OC(=O)N1Cc2c(NC(=O)c3ccc(F)cc3F)n[nH]c2C1(C)C)c1ccccc1 [Example 4, (1S)-2-(dimethylamino)-1-phenylethyl 3-[(2,4-difluorobenzoyl)amino]-6,6-dimethyl-4,6-dihydropyrrolo[3,4-c]pyrazole-5(1H)-carboxylate] | 7.84 | 7.17 | – |
| CN(C)C[C@@H](OC(=O)N1Cc2c(NC(=O)c3ccc(C(F)(F)F)cc3)n[nH]c2C1(C)C)c1ccccc1 [Example 5] | 6.57 | 7.84 | – |
| CN(C)C[C@@H](OC(=O)N1Cc2c(NC(=O)c3ccccn3)n[nH]c2C1(C)C)c1ccccc1 [Example 6, (1S)-2-(dimethylamino)-1-phenylethyl 6,6-dimethyl-3-[(pyridin-2-ylcarbonyl)amino]-4,6-dihydropyrrolo[3,4-c]pyrazole-5(1H)-carboxylate] | 7.55 | 7.51 | – |
| CC(=O)Nc1n[nH]c2c1CN(C(=O)O[C@H](CN(C)C)c1ccccc1)C2(C)C [Example 7, (1S)-2-(dimethylamino)-1-phenylethyl 3-(acetylamino)-6,6-dimethyl-4,6-dihydropyrrolo[3,4-c]pyrazole-5(1H)-carboxylate] | 6.64 | 6.50 | – |
| CC(C)C(=O)Nc1n[nH]c2c1CN(C(=O)O[C@H](CN(C)C)c1ccccc1)C2(C)C [Example 8, (1S)-2-(dimethylamino)-1-phenylethyl 3-(isobutyrylamino)-6,6-dimethyl-4,6-dihydropyrrolo[3,4-c]pyrazole-5(1H)-carboxylate] | 8.13 | 6.91 | – |
| CN(C)C[C@@H](OC(=O)N1Cc2c(NC(=O)C3CC3)n[nH]c2C1(C)C)c1ccccc1 [Example 9, (1S)-2-(dimethylamino)-1-phenylethyl 3-[(cyclopropylcarbonyl)amino]-6,6-dimethyl-4,6-dihydropyrrolo[3,4-c]pyrazole-5(1H)-carboxylate] | 7.88 | 7.02 | – |
| CN(C)C[C@@H](OC(=O)N1Cc2c(NC(=O)C(C)(C)C)n[nH]c2C1(C)C)c1ccccc1 [Example 10, (1S)-2-(dimethylamino)-1-phenylethyl 3-[(2,2-dimethylpropanoyl)amino]-6,6-dimethyl-4,6-dihydropyrrolo[3,4-c]pyrazole-5(1H)-carboxylate] | 8.14 | 7.12 | – |
| CN(C)C[C@@H](OC(=O)N1Cc2c(NC(=O)C3CCC3)n[nH]c2C1(C)C)c1ccccc1 [Example 11, (1S)-2-(dimethylamino)-1-phenylethyl 3-[(cyclobutylcarbonyl)amino]-6,6-dimethyl-4,6-dihydropyrrolo[3,4-c]pyrazole-5(1H)-carboxylate] | 7.80 | 7.00 | – |
| CN(C)C[C@@H](OC(=O)N1Cc2c(NC(=O)C3CCCC3)n[nH]c2C1(C)C)c1ccccc1 [Example 12, (1S)-2-(dimethylamino)-1-phenylethyl 3-[(cyclopentylcarbonyl)amino]-6,6-dimethyl-4,6-dihydropyrrolo[3,4-c]pyrazole-5(1H)-carboxylate] | 8.49 | 7.02 | – |
| CN(C)C[C@@H](OC(=O)N1Cc2c(NC(=O)C3CCCCC3)n[nH]c2C1(C)C)c1ccccc1 [Example 13, (1S)-2-(dimethylamino)-1-phenylethyl 3-[(cyclohexylcarbonyl)amino]-6,6-dimethyl-4,6-dihydropyrrolo[3,4-c]pyrazole-5(1H)-carboxylate] | 8.41 | 6.96 | – |
| CN(C)C[C@@H](OC(=O)N1Cc2c(NC(=O)C3CCCO3)n[nH]c2C1(C)C)c1ccccc1 (stereo partly drawn) [Example 15, (1S)-2-(dimethylamino)-1-phenylethyl 6,6-dimethyl-3-[(tetrahydrofuran-2-ylcarbonyl)amino]-4,6-dihydropyrrolo[3,4-c]pyrazole-5(1H)-carboxylate] | 7.79 | 6.84 | – |
| CN(C)C[C@@H](OC(=O)N1Cc2c(NC(=O)C3CCCCO3)n[nH]c2C1(C)C)c1ccccc1 (stereo partly drawn) [Example 16, (1S)-2-(dimethylamino)-1-phenylethyl 6,6-dimethyl-3-[(tetrahydro-2H-pyran-2-ylcarbonyl)amino]-4,6-dihydropyrrolo[3,4-c]pyrazole-5(1H)-carboxylate] | 7.75 | 6.93 | – |
| CN(C)C[C@@H](OC(=O)N1Cc2c(NC(=O)C3CN(C)CCO3)n[nH]c2C1(C)C)c1ccccc1 (stereo partly drawn) [Example 17, (1S)-2-(dimethylamino)-1-phenylethyl 6,6-dimethyl-3-{[(4-methylmorpholin-2-yl)carbonyl]amino}-4,6-dihydropyrrolo[3,4-c]pyrazole-5(1H)-carboxylate] | 6.96 | 6.59 | – |
| CN(C)C[C@@H](OC(=O)N1Cc2c(NC(=O)Cc3ccc(F)cc3)n[nH]c2C1(C)C)c1ccccc1 [Example 18, (1S)-2-(dimethylamino)-1-phenylethyl 3-{[(4-fluorophenyl)acetyl]amino}-6,6-dimethyl-4,6-dihydropyrrolo[3,4-c]pyrazole-5(1H)-carboxylate] | 7.55 | 7.63 | – |
| COc1ccc(CC(=O)Nc2n[nH]c3c2CN(C(=O)O[C@H](CN(C)C)c2ccccc2)C3(C)C)cc1 [Example 19, (1S)-2-(dimethylamino)-1-phenylethyl 3-{[(4-methoxyphenyl)acetyl]amino}-6,6-dimethyl-4,6-dihydropyrrolo [3,4-c]pyrazole-5(1H)-carboxylate] | 7.17 | 8.10 | – |
| CN(C)C[C@@H](OC(=O)N1Cc2c(NC(=O)[C@@H]3C[C@H]3c3ccccc3)n[nH]c2C1(C)C)c1ccccc1 [Example 20, (1S)-2-(dimethylamino)-1-phenylethyl 6,6-dimethyl-3-({[trans-2-phenylcyclopropyl]carbonyl}amino)-4,6-dihydropyrrolo[3,4-c]pyrazole-5(1H)-carboxylate] | 7.10 | 8.09 | – |

Other lines, results leading:

| pEC50 [1] | pKi [2] | inhibition at 1 µM [2] [%] | Compound |
| --- | --- | --- | --- |
| 5.97 | 7.71 | – | CC1(C)c2[nH]nc(NC(=O)c3cccs3)c2CN1C(=O)N[C@H]1C[C@@H]1c1ccccc1 (relative stereo) [Example 98, 6,6-dimethyl-N-[trans-2-phenylcyclopropyl]-3-[(2-thienylcarbonyl)amino]-4,6-dihydropyrrolo[3,4-c]pyrazole-5(1H)-carboxamide] |
| 5.94 | 7.15 | – | CC1(C)c2[nH]nc(NC(=O)[C@@H]3C[C@H]3c3ccccc3)c2CN1C(=O)N[C@@H]1C[C@H]1c1ccccc1 (relative stereo) [Example 108, 6,6-dimethyl-N-[trans-2-phenylcyclopropyl]-3-({[trans-2-phenylcyclopropyl]-carbonyl}amino)-4,6-dihydropyrrolo[3,4-c]pyrazole-5(1H)-carboxamide] |
| 6.25 | – | – | CN(C)CC(OC(=O)N1Cc2c(n[nH]c2NC(=O)C2CCCO2)C1(C)C)c1cccc(F)c1 (single isomer, unassigned) [Example 83A] |
| 8.30 | 7.44 | – | CN(C)CC(OC(=O)N1Cc2c(n[nH]c2NC(=O)C2CCCO2)C1(C)C)c1cccc(F)c1 (single isomer, unassigned) [Example 83B] |
| 7.80 | 7.15 | – | CN(C)CC(OC(=O)N1Cc2c(n[nH]c2NC(=O)C2CCCO2)C1(C)C)c1cccc(F)c1 (single isomer, unassigned) [Example 84A] |
| 6.40 | – | – | CN(C)CC(OC(=O)N1Cc2c(n[nH]c2NC(=O)C2CCCO2)C1(C)C)c1cccc(F)c1 (single isomer, unassigned) [Example 84B] |
| 7.83 | 7.76 | – | CN(C)CC(OC(=O)N1Cc2c(NC(=O)c3ccc(F)cc3)n[nH]c2C1(C)C)c1ccccc1 (centres unmarked) [Example 22] |
| – | – | 65 | Cc1cc(C(=O)Nc2n[nH]c3c2CN(C(=O)NC2CC2c2ccccc2)C3(C)C)n(C)n1 (stereo not drawn) [Example 113, 3-(1,3-dimethyl-1H-pyrazole-5-carboxamido)-6,6-dimethyl-N-[trans-(2-phenylcyclopropyl)]pyrrolo[3,4-c]pyrazole-5(1H,4H,6H)-carboxamide] |
| – | – | 70 | CCc1ccc(C(=O)Nc2n[nH]c3c2CN(C(=O)NC2CC2c2ccccc2)C3(C)C)cc1 (stereo not drawn) [Example 114, 3-(4-ethylbenzamido)-6,6-dimethyl-N-[trans-(2-phenylcyclopropyl)]pyrrolo[3,4-c]pyrazole-5(1H,4H,6H)-carboxamide] |
| – | 7.68 | – | CC1(C)c2[nH]nc(NC(=O)c3ccc(F)cc3)c2CN1C(=O)N[C@H](CN)c1ccccc1 [Example 115, N-[(1S)-2-amino-1-phenylethyl]-3-[(4-fluorobenzoyl)amino]-6,6-dimethyl-4,6-dihydropyrrolo[3,4-c]pyrazole-5(1H)-carboxamide] |
| – | 6.65 | – | CCC(=O)Nc1n[nH]c2c1CN(C(=O)O[C@H](CN(C)C)c1ccccc1)C2(C)C [Example 118, (S)-2-(dimethylamino)-1-phenylethyl 6,6-dimethyl-3-propionamidopyrrolo[3,4-c]pyrazole-5(1H,4H,6H)-carboxylate] |
| – | 6.33 | – | COC[C@@H](NC(=O)N1Cc2c(NC(=O)c3ccccc3)n[nH]c2C1(C)C)c1ccccc1 [Example 120, (S)-3-benzamido-N-(2-methoxy-1-phenylethyl)-6,6-dimethylpyrrolo[3,4-c]pyrazole-5(1H,4H,6H)-carboxamide] |
